Source: patent publication US20050106554A1, “Cryopreservation of pluripotent stem cells” (priority 2003, published 2005)

Assays:
HES cells [1] = assay: Trypan blue exclusion after cryopreservation of HES colonies in suspension; format: cell-based, human; details: DMSO 0 to 10% in freezing medium, Trypan blue (FIG. 1)
Method: In order to cryopreserve ES cells in suspension, cells were grown to approximately 1000-10,000 cell colonies on Matrigel™ or a MEF feeder layer. Average colony size was determined by counting colony number in a representative sample, then dispersing cells in the colony by treatment with 10 mg/ml dispase and counting cell number. 1 mg/ml collagenase was used to detach colonies from the plate and the colonies were resuspended in freezing medium containing FBS, DMSO and CM at varying concentrations. Cells were not dispersed during freezing. The solution was not seeded to form extracellular ice. 1 ml of 1-3×10^5 cells/ml were placed in a cryovial and frozen at approximately −1° C. per minute. Initial studies were performed by placing cells in a Nalgene Cryo 1° C. freeze container in a −80° C. freezer, and later samples were frozen in a controlled-rate freezer (Forma Scientific, Model 8026). […] After reaching −80° C., cells were stored in liquid nitrogen. HES cells were harvested from a flat-bottomed 24-well tissue culture plate coated with Matrigel™ by addition of trypsin-EDTA (0.25% trypsin, 1 mM EDTA) until colonies were completely dispersed. HES cells were resuspended in 500 μl HES medium containing 10% FBS. […] Total cell number and the fraction of cells that incorporated Trypan blue were counted on a hemacytometer. […]

HES cells [2] = assay: Cell viability by MTT and Alamar blue assays after cryopreservation of adherent HES colonies; format: cell-based, human
Method: In this example, cells were grown to approximately 1000-10,000 cell colonies on Matrigel™ or a MEF feeder layer in a 24 well plate. Average colony size was determined by counting colony number in a representative sample, then dispersing cells in the colony by treatment with 10 mg/ml dispase and counting cell number. The growth medium was aspirated from each well and a top layer of Matrigel™ was poured over the adherent colonies by diluting 6 mg Matrigel™ in 12 ml CM/F+ (conditioned medium+bFGF) and adding 0.5 ml to each well of the 24 well plate. The plate was incubated at 37° C. in a humidified 5% CO2 incubator for 1 hr and the Matrigel™ solution was aspirated from the plate. Then, 0.5 ml growth medium (HES or CM/F+ was added to each well and cells were cultured in the Matrigel™ for up to 2 days. Growth medium was aspirated from each well and 0.5 ml freezing medium containing varying concentrations of FBS, DMSO, and CM was added to each well. The fresh freezing medium was made on the day of freezing. The freezing medium generally contains 10% DMSO, 30% FBS and 60% conditioned HES media. The medium on the plate was aspirated off and replaced with 0.5 ml freezing medium.
The plate was sealed with parafilm and frozen to −80° C. at −1° C. per minute. Initial studies were performed by placing cells in a parafilm-sealed Styrofoam box in a −80° C. freezer, and later samples were frozen in a controlled-rate freezer (Model 8026, Forma Scientific). […] The solution was not seeded to form extracellular ice. The plates containing the cells were then transferred to liquid nitrogen and stored 5-7 days, which was long enough to stabilize the cells but permitted a reasonable experimental throughput.
To thaw the ES cells, plates were placed in a 37° C. water bath and swirled to thaw as rapidly as possible. After thawing, 1 ml fresh CM/F+ medium was added in a drop-wise manner to each well, then aspirated. Fresh media (0.5 ml) was added to each well and the cells were incubated at 37° C. in a humidified 5% CO2 incubator. […]
HES cells were cultured grown on flat-bottomed 24-well tissue culture plates coated with Matrigel™, with 0.5 ml CM/F+ in each well. […] Within an hour, absorbance at 595 nm was measured on a plate reading spectrophotometer (TECAN Genios). A standard curve for the MTT assay (not shown) was generated by growing HES colonies to different concentrations, ranging from 5×10^4 cells per well to 2×10^6 cells per well (determined by counting dispersed cells on a hemacytometer) on a Matrigel™-coated 24 well plate.
HES cells were cultured on flat-bottomed 24-well tissue culture plates coated with Matrigel™, with 0.5 ml CM/F+ in each well. […] Then absorbance was measured on a TECAN Genios plate reader at 595 nm. […]

HES colonies = assay: Colony recovery (colony count) after cryopreservation of adherent HES colonies; format: cell-based, human; details: adherent without top Matrigel layer, 5 days after thawing
Method: In addition to providing higher cell viability, cryopreservation of adherent colonies increases the number of colonies that are able to remain attached to the surface and eventually grow (i.e., higher recovery rate). […] In referring to FIG. 4, approximately 10^6 HES cells were cultured in the well of a Matrigel™-coated 24 well plate. Colonies in sample a were harvested from the plate as intact colonies (were not dispersed) and suspended in cryopreservation media containing 10% DMSO, 30% FBS, and 60% CM/F+. Samples b-e were preserved attached to the Matrigel™ layer in the same cryopreservation media. Sample b was preserved without an additional layer of Matrigel™ poured over the cells prior to freezing, c with a Matrigel™ layer poured 1 hr prior to freezing, d with a Matrigel™ layer poured 24 hr prior to freezing, and e with a Matrigel™ layer poured 48 hr prior to freezing. All samples were stored in liquid nitrogen and thawed after 3 days, then grown for 1-2 weeks. Colonies were then counted to determine colony recovery. Error bars represent SEM for at least four independent trials.
Loading cells with 35 mM trehalose for 24 hours prior to freezing, and then freezing in medium containing DMSO results in an increase in the number of adherent colonies following thawing; virtually all colonies remain attached to the surface and can grow (FIG. 10). […]

[3] = system: SSEA4 expression on HES cells; assay: SSEA4 expression on cryopreserved HES cells by flow cytometry; format: cell-based, human; details: attached to Matrigel, loaded with 35 mM trehalose for 1 day; 10% DMSO, 30% FBS, 60% CM/F+ medium
Method: SSEA4 expression was determined by flow cytometry. After thawing, cells were allowed to grow on Matrigel™ in CM/F+ medium for 7 days, then colonies were removed from Matrigel™ by 1 mg/ml collagenase IV (GIBCO/BRL) treatment. Cells were dispersed by treatment with a 0.05% trypsin, 0.53 mM EDTA solution (GIBCO/BRL) for 5-10 minutes and filtered through a 40 μm mesh. 100 μl of the cell suspension containing 5×10^6 cells/ml was added to a sample tube and a control tube. 1 μl of MC813-70 (anti-SSEA4) (Kannagi et al. 1983) was added to the test tube and 5 μl of 1 mg/ml mouse IgG (Sigma) was added to the control tube. Tubes were vortexed and incubated on ice for 30 min. […] Samples were analyzed using a FACScan flow cytometer (Becton Dickinson) and Cellquest software (Becton Dickinson). […] The fluorescein signal was obtained through a 530/30 band pass filter and the mean fluorescence values for the IgG control and test samples were determined.
Furthermore, in addition to retention of OCT4 expression (see FIG. 6), applicants observed that when HES colonies were frozen in suspension in cryovials, adherent to Matrigel™, embedded in Matrigel™, and loaded with trehalose were able to maintain SSEA4 expression after recovery (FIG. 11, Table 1). […] The gated region for all samples was determined from the positive control (Sample A). […]

HES cells [4] = assay: Toxicity of trehalose in growth medium; format: cell-based, human; details: cell exposure to growth medium containing trehalose
human keratinocytes = details: intracellular trehalose on the order of 0.2M; cited from earlier work
murine 3T3 fibroblasts = details: intracellular trehalose on the order of 0.2M; cited from earlier work
human pancreatic islets = details: trehalose formulations added to cryopreserved islets; cited from earlier work
[5] = system: hematopoeitic precursor cells; details: trehalose added to cryopreservation media containing DMSO and FBS; cited from earlier work

Row | Structure (SMILES) | protection from membrane rupture during cryopreservation (HES cells [1]) | increase in viability compared to DMSO alone (HES cells [2]; 35 mM trehalose loaded 24 hours, 10% DMSO and FBS above 50%, p<0.05) [%] | viability vs loading for 24 hours or not loading (HES cells [2]; 35 mM trehalose loaded 48 hours) | additional protection during freezing and thawing (HES cells [2]; 35 mM trehalose loading, 10% DMSO and FBS concentrations less than 50%) | protection during freezing and thawing (HES cells [2]; 35 mM trehalose loading, absence of DMSO) | colonies recovered (HES colonies; loaded with 35 mM trehalose for 24 hours) | colonies recovered (HES colonies; loaded with 35 mM trehalose for 48 hours) | Percent of cells gated (SSEA4) [3] | trehalose concentration in growth medium causing toxicity (HES cells [4]) | cells surviving a freeze-thaw cycle (human keratinocytes) | cells surviving a freeze-thaw cycle (murine 3T3 fibroblasts) | viable cell recovery (human pancreatic islets) | increase in viability [5]
1 | C[S+](C)[O-] [DMSO, dimethyl sulfoxide] | protect HES cells from membrane rupture |  |  |  |  |  |  |  |  |  |  |  | 
2 | OC[C@H]1O[C@H](O[C@H]2O[C@H](CO)[C@@H](O)[C@H](O)[C@H]2O)[C@H](O)[C@@H](O)[C@@H]1O [trehalose] |  | 25 | lower viability | no additional protection | no protection | 82%±5% | 48%±10% | 81.5 | greater than 35 mM | approximately 75% | approximately 75% | doubles | 7-20%
